Here are results for three compounds from patent US5859033A, “Anticonvulsant pyridinyl benzamide derivatives” (Bristol-Myers Squibb Company, priority 1997, dated 1999).

Experiment [1] has as its system tonic seizure (maximum electroshock) in female C57BI/6 mice. Nature of the experiment: Maximum Electroshock (MES) procedure. The class given is in vivo, mouse (female C57BI/6). To be noted: Mus musculus, ip, 0.5 h, i.p. 30 min before MES, abolition of hindlimb tonic extension, read-out: MES Results: median effective dose (ED50). As to the method:
(§1) The compounds of Formula I are anticonvulsant agents. Their anticonvulsant properties were determined by pharmacologic testing, utilizing two standard animal models of epilepsy: the pentylenetetrazole (PTZ)-induced seizure procedure and the maximal electroshock test (MES). General descriptions of such testing can be found in J. F. Reinhard and J. F. Reinhard, Jr., "Experimental Evaluation of Anticonvulsants," in Anticonvulsants, J. A. Vida, Ed., Academic Press, New York, N.Y., 1977.
The Maximum Electroshock (MES) Procedure
In the MES procedure a tonic seizure was produced in female C57BI/6 mice (17-26 g) by the delivery of a 50 milliamps current through corneal electrodes for 0.2 sec. Before testing, animals were allowed food and water ad libitum. Compounds were injected i.p. (vol=0.1 mL/20 g) 30 min. before the MES. Reference compounds (phenytoin, carbamazepine, phenobarbital, and valproic acid) were tested at the time of peak activity and at the dose range reported in the literature. Seven mice were used per group. In this test anticonvulsive activity was indicated by the abolition of the hindlimb tonic extension. The median effective dose (ED50) was obtained for each compound.

In experiment [2] the test system is pentylenetetrazole (PTZ)-induced seizure in female C57BI/6 mice. Nature of the experiment: Pentylenetetrazole (PTZ)-induced seizure procedure. The class given is in vivo, mouse (female C57BI/6). To be noted: 50 mg/kg i.p., 30 min before 75 mg/kg i.p. PTZ; for PTZ Anticonvulsive Results: Surv (survival at one hour postPTZ): one hour post PTZ. The protocol:
as §1
The Pentylenetetrazole (PZT)-Induced Seizure Procedure
In the PTZ procedure female C57BI/6 mice (17-26 g) were injected i.p. (vol=0.1 mL/20 g) with test compound or vehicle 30 min. before i.p. administration of 75 mg/kg pentylenetetrazol. Multiple doses of reference compounds (ethosuximide, trimethadione, and pentobarbital) were tested at the time of peak activity and at the dose range reported in the literature. Ten mice were used per group. After injection, mice were placed in individual observation cages and monitored for one hour. During the first 30 minutes following PTZ injection, seizure activity was recorded by measuring: the latency to the onset of pre-convulsive activity, the latency to the onset of the first clonic seizure longer than five seconds, the latency to the onset of the first intense-generalized clonic/tonic seizure, and the length of survival. During the second 30 min. period, only time of death was recorded. Those compounds that produced a significant delay in the onset of seizure activity or delayed (or abolished) mortality when compared to that produced by vehicle were classified as anticonvulsants. Significant difference between animals treated with vehicle or test compound were determined using the Student's t-test.

Each structure is given as a SMILES string.

In general, ED50 refers to the midpoint of the dose-response relation.

Take `COc1cc(N)c(Cl)cc1C(=O)NCc1cccnc1` [Example 1, 4-Amino-5-chloro-2-methoxy-N-(3-pyridinylmethyl)benzamide]: in experiment [1], the ED50 was less than 75 mg/kg. Further, in experiment [2], the “PTZ Anticonvulsive Results: First (latency to first seizure)” value (“PTZ Anticonvulsive Results: First” below) was “++++ (++++ = > 400% of controls)”; the “PTZ Anticonvulsive Results: IGS (onset of intense, generalized seizures)” value was “+++ (+++ = > 300% of controls)”; the “PTZ Anticonvulsive Results: Pre (latency to first twitch)” value (shortened to “PTZ Anticonvulsive Results: Pre”) was “++ (++ = > 200% of controls)”; the “PTZ Anticonvulsive Results: Surv Time (duration of survival)” value (“PTZ Anticonvulsive Results: Surv Time” for short) is on record as “++++ (++++ = > 400% of controls)”. The “PTZ Anticonvulsive Results: Surv (survival at one hour postPTZ)” value in experiment [2] was “++++ (++++ = > 400% of controls)”.
Regarding `COc1cc(N)c(Cl)cc1C(=O)NCc1ccccn1` [Example 2, 4-Amino-5-chloro-2-methoxy-N-(2-pyridinylmethyl)benzamide], in experiment [2], the “PTZ Anticonvulsive Results: First” value is on record as “++++ (++++ = > 400% of controls)”, the “PTZ Anticonvulsive Results: Pre” value is on record as “++ (++ = > 200% of controls)”, the “PTZ Anticonvulsive Results: Surv Time” value is “+++ (+++ = > 300% of controls)” and the “PTZ Anticonvulsive Results: Surv (survival at one hour postPTZ)” value is “++++ (++++ = > 400% of controls)”.
`COc1cc(N)c(Cl)cc1C(=O)NCc1ccncc1` [Example 3, 4-Amino-5-chloro-2-methoxy-N-(4-pyridinylmethyl)benzamide]: the ED50 in experiment [1] is less than 10 mg/kg. In experiment [2], the “PTZ Anticonvulsive Results: First” value was “++++ (++++ = > 400% of controls)”; the “PTZ Anticonvulsive Results: IGS (onset of intense, generalized seizures)” value is on record as “+++ (+++ = > 300% of controls)”; the “PTZ Anticonvulsive Results: Pre” value is “++ (++ = > 200% of controls)”; the “PTZ Anticonvulsive Results: Surv Time” value is given as “++++ (++++ = > 400% of controls)”. Besides, in experiment [2], the “PTZ Anticonvulsive Results: Surv (survival at one hour postPTZ)” value is given as “++++ (++++ = > 400% of controls)”.
